Measured values published in the NIST ThermoML archive (doi:10.1016/j.tca.2016.09.014).
Numbers after ± are expanded uncertainties.

What was measured:
[1] = Molar enthalpy of transition or fusion; conditions: Crystal; DSC
[2] = Crystal; DTA

SMILES | Molar enthalpy of transition or fusion [1] | Normal melting temperature [2]
CCCCCCCCCCCCCCCCCC(=O)O [octadecanoic acid] | 12.1 ± 0.335 kcal/mol | –
O=C(O)c1cc(-c2ccc(F)cc2F)ccc1O [2',4'-difluoro-4-hydroxy-1,1'-biphenyl-3-carboxylic acid] | 9.22 ± 0.263 kcal/mol | 211.78 ± 5 °C
CCCCCCCCCCCCCCCCOC(=O)CCCCCCCCCCCCCCC [cetyl palmitate] | 15.8 ± 0.43 kcal/mol | 41.27 ± 5 °C
